Assay results reported in PubChem BioAssay AID1671246.
pIC50: −log10 of the molar value.

Target: Casein kinase I isoform gamma-1 (Homo sapiens) (UniProt Q9HCP0)
Test: inhibition of human CK1 gamma 1 activity – biochemical, Z'-LYTE, FRET, protease-coupled, direct format, dose response (AID 1671246)
Details: recombinant CSNK1G1

Casein kinase I isoform gamma-1 (Homo sapiens), sequence (Q9HCP0 whole entry, looked up, canonical isoform): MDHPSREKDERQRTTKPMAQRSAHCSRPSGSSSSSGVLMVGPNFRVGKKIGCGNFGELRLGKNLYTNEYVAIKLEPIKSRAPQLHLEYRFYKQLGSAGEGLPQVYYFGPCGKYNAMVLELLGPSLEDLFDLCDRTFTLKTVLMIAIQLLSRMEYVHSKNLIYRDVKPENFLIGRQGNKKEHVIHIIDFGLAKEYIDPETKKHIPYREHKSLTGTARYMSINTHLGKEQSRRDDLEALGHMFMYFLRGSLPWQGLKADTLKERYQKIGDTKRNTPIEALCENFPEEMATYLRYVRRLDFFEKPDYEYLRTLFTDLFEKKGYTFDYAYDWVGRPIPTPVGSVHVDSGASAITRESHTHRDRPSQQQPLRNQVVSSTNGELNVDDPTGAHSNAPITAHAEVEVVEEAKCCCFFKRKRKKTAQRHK

CN1C(=O)C2(Cc3cn(C45CC67SSC(CO)(C(=O)N6C4Nc4ccccc45)N(C)C7=O)c4ccccc34)SSC1(CO)C(=O)N2C (stereo unspecified) was tested, and the pIC50 was 6.96.
